Laboratory results published in US10370366B2 (Flatley Discovery Lab, LLC, priority 2013, dated 2019).

Biological target: T1, human F508del CFTR (Homo sapiens, UniProt P13569, DEL508-508)
T1 construct: expressed in transfected cells; host or cells: Fisher Rat Thyroid (FRT) cells
Experiment: CFTR-YFP High Throughput Assay
Assay type: cell-based
Settings: FRT cells expressing human F508del CFTR and YFP; for Emax: EMax normalized to the positive control, read-out: % Efficacy
Method: Assays for Detecting and Measuring the Effect of Compounds on F508del-CFTR Channels CFTR-YFP High Throughput Assay-CFTR Corrector Protocol:
This protocol is designed to selectively screen small molecule compounds for F508del CFTR corrector activities in the HTS YFP (yellow fluorescent protein) flux assay. In this protocol, the cells are incubated with testing compounds for 24 hours, washed with PBS, stimulated with forskolin and a standard potentiator, and fluorescence in each plate well is measured kinetically read on a 384-well HTS plate reader, such as the Hamamatsu FDSS-6000.
YFP fluorescence intensity values are acquired at high speed before and after iodide buffer is injected to the assay cells. Iodide enters the cells via active CFTR channels in the plasma membrane, and quenches the YFP fluorescence. The rate of fluorescence quenching is proportionate to the total CFTR activity in the cell membrane. F508del CFTR correctors increase the number of CFTR molecules in the testing cell plasma membrane, and thereby accelerate YFP quenching.
This method was initially developed for bench top plate readers (Galietta et al., 2001), and was adapted to the HTS format (Sui et al. Assay Drug Dev. Technol. 2010).
Fisher Rat Thyroid (FRT) cells stably expressing both human F508del CFTR and a halide-sensitive yellow fluorescent protein (YFP-H148Q/I152L 25,22) (Galietta et al. Am. J. Physiol Cell Physiol 281(5), C1734, 2001) were cultured on plastic surface in Coon's modified Ham's F12 medium supplemented with FBS 10%, L-glutamine 2 mM, penicillin 100 U/ml, and streptomycin 100 µg/ml. G418 (0.75-1.0 mg/ml) and zeocin (3.2 ug/ml) were used for selection of FRT cells expressing F508del CFTR and YFP. For primary screening, FRT cells were plated into 384-well black wall, transparent bottom microtiter plates (Costar; Corning Inc.) at a cell density of 20,000-40,000 per well. Test compound was applied to the cells at varying concentrations ranging from 2 nM-40 μM in either a 2-fold or 3-fold dilution series. Cells were incubated in a cell culture incubator at 37° C. with 5% CO2 for 24-26 h. Assay plates were washed with DPBS media (Thermo, cat# SH30028.02) to remove unbound cells and compound. Stimulation media (25 μL) containing 20 μM Forskolin & 30 μM P3 [6-(Ethyl-phenyl-sulfonyl)-4-oxo-1,4-dihydro-quinoline-3-carboxylic acid 2-methoxy-benzylamide] in Hams F-12 coon's modified media was added to the plate wells and incubated at room temperature for 60-120 min. […] (10 mM HEPES, 1 mM MgCl2, 3 mM KCl, 1 mM CaCl2, 150 mM NaI) was then added and fluorescence quench curves (Excitation 500 nm/Emission 540 nm; exposure 136 ms) were immediately recorded on an FDSS-6000 plate reader (Hamamatsu). Quench rates were derived from least squares fitting of the data as described by Sui et al (2010).
CFTR-YFP High Throughput Assay-CFTR Potentiator Protocol:
This protocol is designed to selectively screen small molecule compounds for F508del CFTR potentiator activities in the HTS YFP flux assay. Such compounds act acutely to stimulate CFTR already expressed on the membrane surface. In this protocol, the cells are incubated at 27° C. for 24 hours to homogeneously boost F508del CFTR expression in the cell membrane (low temperature correction), washed with PBS, treated with test compound, and CFTR activity is stimulated with forskolin for 1-2 hr. Measurement of ion flux is initiated by addition of iodide-containing buffer, and YFP quenching is kinetically recorded using a 384-well HTS plate reader, such as the Hamamatsu FDSS-6000.
YFP fluorescence intensity values are acquired at high speed over a 1 min time course before and after iodide buffer is injected to the assay cells. Iodide enters the cells via active CFTR channels in the plasma membrane, and quenches the YFP fluorescence. The rate of fluorescence quenching is proportionate to total CFTR activity in the cell membrane. […]

T1 sequence (P13569 with tags, fused parts or gaps DEL508-508): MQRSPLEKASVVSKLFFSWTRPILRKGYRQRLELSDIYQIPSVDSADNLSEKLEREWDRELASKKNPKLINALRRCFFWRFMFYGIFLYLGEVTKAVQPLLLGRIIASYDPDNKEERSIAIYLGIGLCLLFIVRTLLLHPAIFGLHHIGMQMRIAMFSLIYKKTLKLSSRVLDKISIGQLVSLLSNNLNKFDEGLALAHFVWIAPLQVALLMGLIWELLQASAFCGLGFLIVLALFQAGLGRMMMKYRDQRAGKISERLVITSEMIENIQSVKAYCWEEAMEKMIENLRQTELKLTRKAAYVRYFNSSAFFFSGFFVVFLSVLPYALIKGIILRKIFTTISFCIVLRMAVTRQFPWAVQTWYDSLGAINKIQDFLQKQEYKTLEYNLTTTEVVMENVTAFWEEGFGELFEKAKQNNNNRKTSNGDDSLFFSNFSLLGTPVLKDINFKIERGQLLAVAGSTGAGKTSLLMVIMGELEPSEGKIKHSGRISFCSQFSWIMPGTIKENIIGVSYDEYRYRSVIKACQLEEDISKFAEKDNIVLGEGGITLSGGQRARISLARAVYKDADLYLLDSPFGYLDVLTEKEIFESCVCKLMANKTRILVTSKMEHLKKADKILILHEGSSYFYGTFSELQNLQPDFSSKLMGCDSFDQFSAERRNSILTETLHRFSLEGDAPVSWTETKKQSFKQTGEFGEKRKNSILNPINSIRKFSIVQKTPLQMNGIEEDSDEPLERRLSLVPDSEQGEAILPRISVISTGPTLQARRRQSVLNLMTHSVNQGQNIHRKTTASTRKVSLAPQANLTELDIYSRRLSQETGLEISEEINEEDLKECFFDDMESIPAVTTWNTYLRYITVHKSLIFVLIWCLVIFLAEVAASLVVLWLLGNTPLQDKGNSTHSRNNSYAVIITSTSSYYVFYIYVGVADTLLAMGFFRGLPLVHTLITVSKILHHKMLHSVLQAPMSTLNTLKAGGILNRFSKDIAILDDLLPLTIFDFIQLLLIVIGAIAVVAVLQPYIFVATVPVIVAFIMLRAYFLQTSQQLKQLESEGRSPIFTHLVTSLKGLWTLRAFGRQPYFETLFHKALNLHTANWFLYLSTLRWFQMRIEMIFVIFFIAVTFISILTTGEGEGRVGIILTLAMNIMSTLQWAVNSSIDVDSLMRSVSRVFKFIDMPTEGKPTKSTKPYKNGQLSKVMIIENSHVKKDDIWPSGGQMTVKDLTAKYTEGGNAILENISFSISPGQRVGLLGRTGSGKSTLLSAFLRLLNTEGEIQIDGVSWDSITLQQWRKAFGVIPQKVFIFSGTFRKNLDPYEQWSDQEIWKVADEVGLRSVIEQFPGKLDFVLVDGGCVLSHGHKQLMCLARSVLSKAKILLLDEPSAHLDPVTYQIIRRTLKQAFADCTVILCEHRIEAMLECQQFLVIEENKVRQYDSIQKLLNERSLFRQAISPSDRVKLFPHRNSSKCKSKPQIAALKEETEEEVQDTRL

Emax	EC50	Compound
10 to 30%	–	CCc1ccc(N(CC)C(=O)Cn2nc(-c3ccccc3)c3ccccc3c2=O)cc1 [Example 1, N-ethyl-N-(4-ethylphenyl)-2-(1-oxo-4-phenylphthalazin-2(1H)-yl)acetamide]
10 to 30%	–	CCc1ccc(N(CC)C(=O)Cn2nc(-c3ccc(O)cc3)c3ccccc3c2=O)cc1 [Example 2, N-ethyl-N-(4-ethylphenyl)-2-(4-(4-hydroxyphenyl)-1-oxophthalazin-2(1H)-yl)acetamide]
30 to 80%	–	CCc1ccc(N(CC)C(=O)Cn2nc(-c3cccnc3)c3ccccc3c2=O)cc1 [Example 3, N-ethyl-N-(4-ethylphenyl)-2-(1-oxo-4-(pyridin-3-yl)phthalazin-2(1H)-yl)acetamide]
30 to 80%	–	CCc1ccc(N(CC)C(=O)Cn2nc(-c3ccncc3)c3ccccc3c2=O)cc1 [Example 4, N-ethyl-N-(4-ethylphenyl)-2-(1-oxo-4-(pyridin-4-yl)phthalazin-2(1H)-yl)acetamide]
30 to 80%	–	CCc1ccc(N(CC)C(=O)Cn2nc(-c3cccc4ncccc34)c3ccccc3c2=O)cc1 [Example 5, N-ethyl-N-(4-ethylphenyl)-2-(1-oxo-4-(quinolin-5-yl)phthalazin-2(1H)-yl)acetamide]
30 to 80%	–	CCc1ccc(N(CC)C(=O)Cn2nc(-c3cccc4cnccc34)c3ccccc3c2=O)cc1 [Example 6, N-ethyl-N-(4-ethylphenyl)-2-(4-(isoquinolin-5-yl)-1-oxophthalazin-2(1H)-yl)acetamide]
30 to 80%	> 20 µM	CCc1ccc(N(CC)C(=O)Cn2nc(-c3cncnc3)c3ccccc3c2=O)cc1 [Example 7, N-ethyl-N-(4-ethylphenyl)-2-(1-oxo-4-(pyrimidin-5-yl)phthalazin-2(1H)-yl)acetamide]
30 to 80%	< 10 µM	CCc1ccc(N(CC)C(=O)Cn2nc(-c3cccc(N)c3)c3ccccc3c2=O)cc1 [Example 8, 2-(4-(3-aminophenyl)-1-oxophthalazin-2(1H)-yl)-N-ethyl-N-(4-ethylphenyl)acetamide]
10 to 30%	< 10 µM	CCc1ccc(N(CC)C(=O)Cn2nc(-c3cccc(O)c3)c3ccccc3c2=O)cc1 [Example 9, N-ethyl-N-(4-ethylphenyl)-2-(4-(3-hydroxyphenyl)-1-oxophthalazin-2(1H)-yl)acetamide]
10 to 30%	> 20 µM	CCc1ccc(N(CC)C(=O)Cn2nc(-c3cccc4c3OCO4)c3ccccc3c2=O)cc1 [Example 10, 2-(4-(benzo[d][1,3]dioxol-4-yl)-1-oxophthalazin-2(1H)-yl)-N-ethyl-N-(4-ethylphenyl)acetamide]
30 to 80%	10 to 20 µM	CCc1ccc(N(CC)C(=O)Cn2nc(-c3cccc(C(N)=O)c3)c3ccccc3c2=O)cc1 [Example 11, 3-(3-(2-(ethyl(4-ethylphenyl)amino)-2-oxoethyl)-4-oxo-3,4-dihydrophthalazin-1-yl)benzamide]
30 to 80%	> 20 µM	CCc1ccc(N(CC)C(=O)Cn2nc(-c3ccc(C(N)=O)cc3)c3ccccc3c2=O)cc1 [Example 12, 4-(3-(2-(ethyl(4-ethylphenyl)amino)-2-oxoethyl)-4-oxo-3,4-dihydrophthalazin-1-yl)benzamide]
30 to 80%	10 to 20 µM	CCc1ccc(N(CC)C(=O)Cn2nc(-c3ccc(S(N)(=O)=O)cc3)c3ccccc3c2=O)cc1 [Example 13, N-ethyl-N-(4-ethylphenyl)-2-(1-oxo-4-(4-sulfamoylphenyl)phthalazin-2(1H)-yl)acetamide]
30 to 80%	> 20 µM	CCc1ccc(N(CC)C(=O)Cn2nc(-c3ccc(C(=O)O)cc3)c3ccccc3c2=O)cc1 [Example 14, 4-(3-(2-(ethyl(4-ethylphenyl)amino)-2-oxoethyl)-4-oxo-3,4-dihydrophthalazin-1-yl)benzoic acid]
10 to 30%	> 20 µM	CCc1ccc(N(CC)C(=O)Cn2nc(-c3ccc(C(=O)OC)cc3)c3ccccc3c2=O)cc1 [Example 15, methyl 4-(3-(2-(ethyl(4-ethylphenyl)amino)-2-oxoethyl)-4-oxo-3,4-dihydrophthalazin-1-yl)benzoate]
30 to 80%	< 10 µM	CCc1ccc(N(CC)C(=O)Cn2nc(-c3ccc(S(C)(=O)=O)cc3)c3ccccc3c2=O)cc1 [Example 16, N-ethyl-N-(4-ethylphenyl)-2-(4-(4-(methylsulfanoyl)phenyl)-1-oxophthalazin-2(1H)-yl)acetamide]
30 to 80%	< 10 µM	CCc1ccc(N(CC)C(=O)Cn2nc(-c3cccc(C#N)c3)c3ccccc3c2=O)cc1 [Example 17, 2-(4-(3-cyanophenyl)-1-oxophthalazin-2(1H)-yl)-N-ethyl-N-(4-ethylphenyl)acetamide]
> 80%	10 to 20 µM	CCN(C(=O)Cn1nc(-c2ccc(S(N)(=O)=O)cc2)c2ccccc2c1=O)c1ccc2c(c1)OC(F)(F)O2 [Example 18, N-(2,2-difluorobenzo[d][1, 3]dioxol-5-yl)-N-ethyl-2-(1-oxo-4-(4-sulfamoylphenyl)phthalazin-2(1H)-yl)acetamide]
> 80%	10 to 20 µM	CCN(C(=O)Cn1nc(-c2ccc(C(N)=O)cc2)c2ccccc2c1=O)c1ccc2c(c1)OC(F)(F)O2 [Example 19, 4-(3-(2-((2,2-difluorobenzo[d][1,3]dioxol-5-yl)(ethyl)amino)-2-oxoethyl)-4-oxo-3,4-dihydrophthalazin-1-yl)benzamide]
30 to 80%	> 20 µM	CCN(C(=O)Cn1nc(-c2ccc(C(=O)O)cc2)c2ccccc2c1=O)c1ccc2c(c1)OC(F)(F)O2 [Example 20, 4-(3-(2-((2,2-difluorobenzo[d][1,3]dioxol-5-yl)(ethyl)amino)-2-oxoethyl)-4-oxo-3,4-dihydrophthalazin-1-yl)benzoic acid]
> 80%	< 10 µM	CCN(C(=O)Cn1nc(-c2cccc(C#N)c2)c2ccccc2c1=O)c1ccc2c(c1)OC(F)(F)O2 [Example 21, 2-(4-(3-cyanophenyl)-1-oxophthalazin-2(1H)-yl)-N-(2,2-difluorobenzo[d][1,3]dioxol-5-yl)-N-ethylacetamide]
> 80%	< 10 µM	CCN(C(=O)Cn1nc(-c2cccc(F)c2)c2ccccc2c1=O)c1ccc2c(c1)OC(F)(F)O2 [Example 23, N-(2,2-difluorobenzo[d][1, 3]dioxol-5-yl)-N-ethyl-2-(4-(3-fluorophenyl)-1-oxophthalazin-2(1H)-yl)acetamide]
30 to 80%	< 10 µM	CCN(C(=O)Cn1nc(-c2cccnc2)c2ccccc2c1=O)c1ccc2c(c1)OC(F)(F)O2 [Example 24, N-(2,2-difluorobenzo[d][1, 3]dioxol-5-yl)-N-ethyl-2-(1-oxo-4-(pyridin-3-yl)phthalazin-2(1H)-yl)acetamide]
30 to 80%	10 to 20 µM	CCc1ccc(N(CC)C(=O)Cn2nc(Cc3cccnc3)c3ccccc3c2=O)cc1 [Example 25, N-ethyl-N-(4-ethylphenyl)-2-(1-oxo-4-(pyridin-3-ylmethyl)phthalazin-2(1H)-yl)acetamide]
30 to 80%	–	CCN(C(=O)Cn1nc(Cc2cccnc2)c2ccccc2c1=O)c1ccc2c(c1)OC(F)(F)O2 [Example 26, N-(2,2-difluorobenzo[d][1,3]dioxol-5-yl)-N-ethyl-2-(1-oxo-4-(pyridin-3-ylmethyl)phthalazin-2(1H)-yl)acetamide]
30 to 80%	–	COc1ccc(N(C)C(=O)Cn2nc(Cc3cccnc3)c3ccccc3c2=O)cc1 [Example 27, N-(4-methoxyphenyl)-N-methyl-2-(1-oxo-4-(pyridin-3-ylmethyl)phthalazin-2(1H)-yl)acetamide]
